Source: article PMC7343278, “A Meroisoprenoid, Heptenolides, and C-Benzylated Flavonoids from Sphaerocoryne gracilis ssp. gracilis” (Journal of Natural Products, 2020)
Like-named read-outs stand apart in the source and are kept apart here.

Key:
[1] = tested on: HEK-293 human embryonic kidney cells; experiment: Cytotoxicity against human embryonic kidney cells; format: cell-based; conditions: for inhibition at 20 µM: read-out: Percentage growth inhibition at 20 μM, HEK-293
Procedure: (§1) Antiplasmodial activity was determined using a high-content imaging assay, as described previously.[10],[24] The cytotoxicity of the antiplasmodial compounds was evaluated against human embryonic kidney cells (HEK-293) following an established protocol.[10],[24] Human red blood cells for culture of P. falciparum were provided by the Australian Red Cross Blood Bank in accordance with their routine Material Transfer Agreement (MTA) for nonclinical blood product supply. These bioassay studies were approved by the Griffith University Biosafety and Human Ethics Committee (GU ref no. ESK/03/12/HREC; 03/08/11019).

[2] = tested on: cap-dependent and independent translation initiation; experiment: Translation inhibition assay (luciferase model); format: biochemical; conditions: in vitro
Procedure: Luciferase inhibition activity assays were performed following standard procedures described previously.[9],[10]

[3] = tested on: Plasmodium falciparum chloroquine-sensitive (3D7) strain; experiment: Antiplasmodial high-content imaging assay, 3D7 strain; format: cell-based; conditions: for IC50: Plasmodium falciparum; for inhibition of plasmodial growth at 20 μM: 20 μM concentration, strain not specified (3D7/Dd2)
[4] = tested on: Plasmodium falciparum chloroquine-resistant (Dd2) strain; experiment: Antiplasmodial high-content imaging assay, Dd2 strain; format: cell-based
Procedure: as §1

[5] = P. falciparum 3D7 (chloroquine-sensitive), read-out: IC50 3D7
[6] = P. falciparum Dd2 (chloroquine-resistant), read-out: IC50 Dd2

Q: With `CCc1nc(N)nc(N)c1-c1ccc(Cl)cc1` [pyrimethamine] as the compound, how does the IC50 ([1]; HEK293, HEK-293 cells) read?
A: 4.2 µM

Q: How did the translational inhibitory activity [2] turn out when `O=C1C=C/C(=C/[C@H](O)COC(=O)c2ccccc2)O1` [compound 9, (Z)-melodorinol] was run?
A: none showed significant translational inhibitory activity

Q: `O=C1C[C@@H](c2ccccc2)Oc2c(Cc3cccc(O)c3O)c(O)c(Cc3cccc(O)c3O)c(O)c21` [compound 6, 3″-hydroxygracinol] was tested. Which translational inhibitory activity [2] did it give?
A: none showed significant translational inhibitory activity

Q: How did the inhibition at 20 µM ([1]; HEK293, HEK-293 cells) turn out when `C[C@H]1[C@@H](O)O[C@@H]2O[C@@]3(C)CC[C@H]4[C@H](C)CC[C@@H]1[C@@]24OO3` [DHA] was run?
A: 50%

Q: For `COc1ccc(C[C@H](N)C(=O)N[C@H]2[C@@H](O)[C@H](n3cnc4c(N(C)C)ncnc43)O[C@@H]2CO)cc1` [puromycin], which IC50 ([1]; HEK293, HEK-293 cells) is on record?
A: 0.36 µM

Q: And the IC50 [3, 5]?
A: 0.023 µM

Q: And the IC50 [4, 6]?
A: 0.045 µM

Q: Which translational inhibitory activity [2] does the source give for `O=c1cc(-c2ccccc2)oc2cc(O)cc(O)c12` [compound 12, 5,7-dihydroxyflavone] here?
A: none showed significant translational inhibitory activity

Q: Which results are given for `CCN(CC)CCCC(C)Nc1ccnc2cc(Cl)ccc12` (stereo not drawn) [chloroquine]?
A: inhibition at 40 µM ([1]; HEK293, read-out: Percentage growth inhibition at 40 μM, HEK-293): 60%; IC50 ([3]; 3D7, read-out: IC50 3D7): 0.0045 µM; IC50 ([4]; DD2, read-out: IC50 Dd2): 0.046 µM

Q: With `COc1ccc2nc3cc(Cl)ccc3c(Nc3cc(CN4CCCC4)c(O)c(CN4CCCC4)c3)c2n1` [pyronaridine] as the compound, how does the IC50 ([1]; HEK293, HEK-293 cells) read?
A: 1.8 µM

Q: And the IC50 [3, 5]?
A: 0.0036 µM

Q: And the IC50 [4, 6]?
A: 0.0075 µM

Q: Which results are given for `COC(=O)/C=C/C(=O)C[C@H](O)COC(=O)c1ccccc1` [compound 10, 7-hydroxy-6-hydromelodienone]?
A: inhibition at 40 µM ([1]; HEK293, HEK-293 cells, 40 μM, read-out: Percentage growth inhibition at 40 μM, HEK-293): 100%; translational inhibitory activity [2]: none showed significant translational inhibitory activity

Q: For `O=c1cc(-c2ccccc2)oc2c(Cc3cccc(O)c3O)c(O)cc(O)c12` [compound 5, 8-(2,3-dihydroxybenzyl)-5,7-dihydroxy-2-phenyl-4H-chromen-4-one], which “inhibition of plasmodial growth at 20 μM” value [3] is on record?
A: inhibited plasmodial growth moderately

Q: What about the translational inhibitory activity [2] of the same compound?
A: none showed significant translational inhibitory activity

Q: For `C[C@H]1[C@H](OC(=O)CCC(=O)O)O[C@@H]2O[C@@]3(C)CC[C@H]4[C@H](C)CC[C@@H]1[C@@]24OO3` [artesunate], which inhibition at 20 µM ([1]; HEK293, HEK-293 cells) is on record?
A: 75%

Q: What does the source list for `O=C1C[C@@H](c2ccccc2)Oc2cc(O)c(Cc3cccc(O)c3O)c(O)c21` [compound 4, (S)-6-(2,3-dihydroxybenzyl)-5,7-dihydroxy-2-phenylchroman-4-one]?
A: inhibition of plasmodial growth at 20 μM [3]: inhibited plasmodial growth moderately; translational inhibitory activity [2]: none showed significant translational inhibitory activity
